Assay results: patent US20120130060A1, “Modified antisense oligopeptides with anticancer properties and method of obtaining them” (priority 2010, published 2012)

Experiments:
[1] = ED50 and therapeutic index, comparative characteristics of Anticanum and Taxotere; type: in vivo
[2] = Average lethal intravenous dose in rats; settings: both, rat, in vivo
Description: The calculation of the average lethal dose was made according to B. M. Shtabskiy's methods with the use of the equation:
where: • X1 and X2 are the values of the two extreme of the three doses studied that have an effect on more or less than 50% of the animals; the third dose is the intermediate; • Y1 ? Y2 are the lethality percentages corresponding to doses X1 and X2; • ΣY— is the sum of the three doses studied; the number of doses used in the calculations is equal to 3.
Then d, the average margin of error for the average lethal dose was found through use of the Miller-Tainter formula:
N is the total number of animals in the groups in which even one animal died or survived, and the confidence ranges were established.

CC(=O)O[C@@]12CO[C@@H]1C[C@H](O)[C@@]1(C)C(=O)[C@H](O)C3=C(C)[C@@H](OC(=O)[C@H](O)[C@@H](NC(=O)OC(C)(C)C)c4ccccc4)C[C@@](O)([C@@H](OC(=O)c4ccccc4)[C@H]21)C3(C)C [Taxotere]
ED50 [1]: 0.035 mg/kg
LD50 [2]: 0.12 mg/kg
